Patent publication US20230312528A1, “2-OXO-IMIDAZOLIDINE-4-CARBOXAMIDES AS NAV1.8 INHIBITORS” (Merck Sharp & Dohme LLC, priority 2020, published 2023)

Target: human NaV1.8 (Homo sapiens (Human), UniProt Q9Y5Y9)
Assay: Nav1.8 Qube automated patch-clamp assay
Type: cell-based
Details: human NaV1.8 stably expressed in HEK 293 cells; automated 384-well patch-clamp; resting or inactivated state not specified
In short: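 Human NaV1.8 in HEK293 cells, automated whole-cell patch clamp at room temperature: 1 Hz train of ten 20 ms pulses to 10 mV from −90 mV, repolarization to −67 mV. First- and tenth-pulse peak currents gave resting and inactivated-state IC50 values via Hill fits.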

human NaV1.8, sequence (Q9Y5Y9 whole entry): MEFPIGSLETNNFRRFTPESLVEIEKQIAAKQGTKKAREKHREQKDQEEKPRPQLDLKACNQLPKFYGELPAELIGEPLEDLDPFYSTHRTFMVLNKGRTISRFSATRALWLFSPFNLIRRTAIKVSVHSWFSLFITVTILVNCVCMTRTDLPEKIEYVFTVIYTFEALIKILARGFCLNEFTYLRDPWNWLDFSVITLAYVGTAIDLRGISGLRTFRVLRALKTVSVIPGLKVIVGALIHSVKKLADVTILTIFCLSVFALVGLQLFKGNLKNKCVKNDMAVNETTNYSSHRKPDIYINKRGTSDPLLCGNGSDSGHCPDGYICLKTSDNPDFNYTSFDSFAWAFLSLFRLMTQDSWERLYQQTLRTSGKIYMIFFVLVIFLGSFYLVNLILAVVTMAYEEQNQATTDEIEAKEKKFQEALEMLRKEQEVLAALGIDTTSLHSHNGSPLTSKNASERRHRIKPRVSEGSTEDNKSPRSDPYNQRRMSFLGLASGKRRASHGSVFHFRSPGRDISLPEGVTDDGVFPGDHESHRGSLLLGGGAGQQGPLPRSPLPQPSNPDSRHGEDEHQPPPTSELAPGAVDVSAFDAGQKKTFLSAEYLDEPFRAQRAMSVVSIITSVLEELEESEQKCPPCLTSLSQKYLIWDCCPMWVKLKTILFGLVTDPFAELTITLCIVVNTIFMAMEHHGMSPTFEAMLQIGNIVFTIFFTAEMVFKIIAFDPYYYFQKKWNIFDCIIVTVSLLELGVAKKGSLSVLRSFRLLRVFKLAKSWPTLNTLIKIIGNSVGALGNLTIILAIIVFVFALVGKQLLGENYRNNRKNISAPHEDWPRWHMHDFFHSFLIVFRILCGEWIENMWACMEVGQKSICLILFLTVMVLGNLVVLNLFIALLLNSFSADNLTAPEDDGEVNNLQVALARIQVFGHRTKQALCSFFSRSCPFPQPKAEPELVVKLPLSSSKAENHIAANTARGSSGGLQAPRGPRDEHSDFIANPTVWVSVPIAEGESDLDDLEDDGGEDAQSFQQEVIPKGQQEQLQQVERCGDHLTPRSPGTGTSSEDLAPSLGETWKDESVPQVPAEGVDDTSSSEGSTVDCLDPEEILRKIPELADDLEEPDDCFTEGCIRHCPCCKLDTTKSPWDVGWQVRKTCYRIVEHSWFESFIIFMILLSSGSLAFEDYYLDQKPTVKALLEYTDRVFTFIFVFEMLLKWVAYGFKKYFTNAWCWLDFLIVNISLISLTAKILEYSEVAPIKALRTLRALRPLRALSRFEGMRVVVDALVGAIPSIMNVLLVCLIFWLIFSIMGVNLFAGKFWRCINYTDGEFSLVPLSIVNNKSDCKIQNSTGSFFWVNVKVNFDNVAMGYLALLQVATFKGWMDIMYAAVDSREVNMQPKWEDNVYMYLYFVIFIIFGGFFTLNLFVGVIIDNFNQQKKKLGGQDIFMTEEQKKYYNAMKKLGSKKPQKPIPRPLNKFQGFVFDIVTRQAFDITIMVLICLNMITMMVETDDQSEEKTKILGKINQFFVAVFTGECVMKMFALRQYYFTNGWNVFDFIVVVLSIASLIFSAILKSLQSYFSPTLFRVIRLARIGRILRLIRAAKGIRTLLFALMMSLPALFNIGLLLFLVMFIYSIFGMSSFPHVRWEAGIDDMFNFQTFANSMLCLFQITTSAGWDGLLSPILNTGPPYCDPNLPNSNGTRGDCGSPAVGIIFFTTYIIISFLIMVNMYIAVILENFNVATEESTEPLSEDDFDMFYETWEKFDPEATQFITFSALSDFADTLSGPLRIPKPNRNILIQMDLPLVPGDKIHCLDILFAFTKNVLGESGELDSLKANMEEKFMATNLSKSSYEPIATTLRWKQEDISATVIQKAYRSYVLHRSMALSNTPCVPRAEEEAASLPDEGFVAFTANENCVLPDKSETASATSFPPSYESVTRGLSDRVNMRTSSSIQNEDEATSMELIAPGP

| IC50 | SMILES |
| --- | --- |
| 19 nM | O=C1NC[C@@H](C(=O)NC(c2ccc(Cl)cc2)c2cccc(OC(F)F)n2)N1 (single isomer, unassigned) [Example 74A, (S)-N-((R or S)-(4-chlorophenyl)(6-(difluoromethoxy)pyridin-2-yl)methyl)-2-oxoimidazolidine-4-carboxamide] |
| 244 nM | O=C1NC[C@@H](C(=O)NC(c2ccc(Cl)cc2)c2cccc(OC(F)F)n2)N1 (single isomer, unassigned) [Example 74B, (S)-N-((R or S)-(4-chlorophenyl)(6-(difluoromethoxy)pyridin-2-yl)methyl)-2-oxoimidazolidine-4-carboxamide] |
| 58 nM | Cn1nc(C(NC(=O)[C@@H]2CNC(=O)N2)c2ccc(Cl)cc2)cc1C(F)(F)F (single isomer, unassigned) [Example 75A] |
| 115 nM | Cn1nc(C(NC(=O)[C@@H]2CNC(=O)N2)c2ccc(Cl)cc2)cc1C(F)(F)F (single isomer, unassigned) [Example 75B] |
| 26 nM | O=C1NC[C@@H](C(=O)NC(c2ccc(F)c(Cl)c2)C2C3CN(CC(F)(F)F)CC32)N1 (single isomer, unassigned) [Example 77A, (4S)-N-((1(R or S))-(3-chloro-4-fluorophenyl)(3-(2,2,2-trifluoroethyl)-3-azabicyclo[3.1.0]hexan-6-yl)methyl)-2-oxoimidazolidine-4-carboxamide] |
| 267 nM | O=C1NC[C@@H](C(=O)NC(c2ccc(F)c(Cl)c2)C2C3CN(CC(F)(F)F)CC32)N1 (single isomer, unassigned) [Example 77B, (4S)-N-((1(R or S))-(3-chloro-4-fluorophenyl)(3-(2,2,2-trifluoroethyl)-3-azabicyclo[3.1.0]hexan-6-yl)methyl)-2-oxoimidazolidine-4-carboxamide] |
| 4070 nM | CN1CCC(C(NC(=O)[C@@H]2CNC(=O)N2)c2ccc(F)c(Cl)c2F)CC1C(F)(F)F (single isomer, unassigned) [Example 78A, (S)-N-((R or S)-(3-chloro-2,4-difluoro-phenyl)((cis or trans)-1-methyl-2-(trifluoro-methyl)piperidin-4-yl)methyl)-2-oxoimidazolidine-4-carboxamide] |
| 9500 nM | CN1CCC(C(NC(=O)[C@@H]2CNC(=O)N2)c2ccc(F)c(Cl)c2F)CC1C(F)(F)F (single isomer, unassigned) [Example 78B, (S)-N-((R or S)-(3-chloro-2,4-difluoro-phenyl)((cis or trans)-1-methyl-2-(trifluoro-methyl)piperidin-4-yl)methyl)-2-oxoimidazolidine-4-carboxamide] |
| 8630 nM | CN1CCC(C(NC(=O)[C@@H]2CNC(=O)N2)c2ccc(F)c(Cl)c2F)CC1C(F)(F)F (single isomer, unassigned) [Example 78C, (S)-N-((R or S)-(3-chloro-2,4-difluoro-phenyl)((cis or trans)-1-methyl-2-(trifluoro-methyl)piperidin-4-yl)methyl)-2-oxoimidazolidine-4-carboxamide] |
| 4660 nM | CN1CCC(C(NC(=O)[C@@H]2CNC(=O)N2)c2ccc(F)c(Cl)c2F)CC1C(F)(F)F (single isomer, unassigned) [Example 78D, (S)-N-((R or S)-(3-chloro-2,4-difluoro-phenyl)((cis or trans)-1-methyl-2-(trifluoro-methyl)piperidin-4-yl)methyl)-2-oxoimidazolidine-4-carboxamide] |
| 24 nM | CN1CCC(C(NC(=O)[C@@H]2CNC(=O)N2)c2ccc(F)c(Cl)c2F)CC1C(F)(F)F (single isomer, unassigned) [Example 78E, (S)-N-((R or S)-(3-chloro-2,4-difluoro-phenyl)((cis or trans)-1-methyl-2-(trifluoro-methyl)piperidin-4-yl)methyl)-2-oxoimidazolidine-4-carboxamide] |
| 39 nM | O=C1NC[C@@H](C(=O)NC(c2ccc(F)c(Cl)c2F)C2COC(C(F)(F)F)C2)N1 (single isomer, unassigned) [Example 79A, (S)-N-((R or S)-(3-chloro-2,4-difluoro-phenyl)((cis or trans)-5-(trifluoro-methyl)-tetrahydrofuran-3-yl)methyl)-2-oxoimidazolidine-4-carboxamide] |
| 190 nM | O=C1NC[C@@H](C(=O)NC(c2ccc(F)c(Cl)c2F)C2COC(C(F)(F)F)C2)N1 (single isomer, unassigned) [Example 79B, (S)-N-((R or S)-(3-chloro-2,4-difluoro-phenyl)((cis or trans)-5-(trifluoromethyl)tetrahydrofuran-3-yl)methyl)-2-oxoimidazolidine-4-carboxamide] |
| 886 nM | O=C1NC[C@@H](C(=O)NC(c2ccc(F)c(Cl)c2F)C2COC(C(F)(F)F)C2)N1 (single isomer, unassigned) [Example 79C, (S)-N-((R or S)-(3-chloro-2,4-difluoro-phenyl)((cis or trans)-5-(trifluoromethyl)tetrahydrofuran-3-yl)methyl)-2-oxoimidazolidine-4-carboxamide] |
| 3680 nM | O=C1NC[C@@H](C(=O)NC(c2ccc(F)c(Cl)c2F)C2COC(C(F)(F)F)C2)N1 (single isomer, unassigned) [Example 79D, (S)-N-((R or S)-(3-chloro-2,4-difluoro-phenyl)((cis or trans)-5-(trifluoromethyl)tetrahydrofuran-3-yl)methyl)-2-oxoimidazolidine-4-carboxamide] |
| 49 nM | O=C1NC[C@@H](C(=O)NC(c2ccc(F)c(Cl)c2F)C2COC(C(F)(F)F)C2)N1 (single isomer, unassigned) [Example 79E, (S)-N-((R or S)-(3-chloro-2,4-difluoro-phenyl)((cis or trans)-5-(trifluoromethyl)tetrahydrofuran-3-yl)methyl)-2-oxoimidazolidine-4-carboxamide] |
| 520 nM | O=C1NC[C@@H](C(=O)NC(c2ccc(F)c(Cl)c2F)C2COC(C(F)(F)F)C2)N1 (single isomer, unassigned) [Example 79F, (S)-N-((R or S)-(3-chloro-2,4-difluoro-phenyl)((cis or trans)-5-(trifluoromethyl)tetrahydrofuran-3-yl)methyl)-2-oxoimidazolidine-4-carboxamide] |
| 2330 nM | O=C1NC[C@@H](C(=O)NC(c2ccc(F)c(Cl)c2F)C2COC(C(F)(F)F)C2)N1 (single isomer, unassigned) [Example 79G, (S)-N-((R or S)-(3-chloro-2,4-difluoro-phenyl)((cis or trans)-5-(trifluoromethyl)tetrahydrofuran-3-yl)methyl)-2-oxoimidazolidine-4-carboxamide] |
| 3860 nM | O=C1NC[C@@H](C(=O)NC(c2ccc(F)c(Cl)c2F)C2COC(C(F)(F)F)C2)N1 (single isomer, unassigned) [Example 79H, (S)-N-((R or S)-(3-chloro-2,4-difluoro-phenyl)((cis or trans)-5-(trifluoromethyl)tetrahydrofuran-3-yl)methyl)-2-oxoimidazolidine-4-carboxamide] |
| 100 nM | O=C1NC[C@@H](C(=O)NC(c2ccc(Cl)cc2)c2ccn3nccc3c2)N1 (single isomer, unassigned) [Example 80A, (S)—N—((R or S)-(4-chlorophenyl)(pyrazolo[1,5-a]pyridin-5-yl)methyl)-2-oxoimidazolidine-4-carboxamide] |
| 107 nM | O=C1NC[C@@H](C(=O)NC(c2ccc(Cl)cc2)c2ccn3nccc3c2)N1 (single isomer, unassigned) [Example 80B, (S)-N-((R or S)-(4-chlorophenyl) (pyrazolo[1,5-a]pyridin-5-yl)methyl)-2-oxoimidazolidine-4-carboxamide] |
| 255 nM | O=C1NC[C@@H](C(=O)NC(c2ccc(Cl)cc2)c2ccc3cn[nH]c3c2)N1 (single isomer, unassigned) [Example 82A, (S)-N-((R or S)-(4-chlorophenyl)(1H-indazol-6-yl)methyl)-2-oxoimidazolidine-4-carboxamide] |
| 93 nM | O=C1NC[C@@H](C(=O)NC(c2ccc(Cl)cc2)c2ccc3cn[nH]c3c2)N1 (single isomer, unassigned) [Example 82B, (S)-N-((R or S)-(4-chlorophenyl)(1H-indazol-6-yl)methyl)-2-oxoimidazolidine-4-carboxamide] |
| 372 nM | CS(=O)(=O)c1ccc(C(NC(=O)[C@@H]2CNC(=O)N2)c2ccc(F)c(Cl)c2)cc1 (single isomer, unassigned) [Example 85A, (S)-N-((R or S)-(3-chloro-4-fluorophenyl)(4-(methylsulfonyl)phenyl)methyl)-2-oxoimidazolidine-4-carboxamide] |
| 1280 nM | CS(=O)(=O)c1ccc(C(NC(=O)[C@@H]2CNC(=O)N2)c2ccc(F)c(Cl)c2)cc1 (single isomer, unassigned) [Example 85B, (S)-N-((R or S)-(3-chloro-4-fluorophenyl)(4-(methylsulfonyl)phenyl)methyl)-2-oxoimidazolidine-4-carboxamide] |
| 2.9 nM | O=C1NC[C@@H](C(=O)NC(c2ccc(F)c(Cl)c2)c2nc3ccccc3s2)N1 (single isomer, unassigned) [Example 87, (S)-N-((R or S)-benzo[d]thiazol-2-yl(3-chloro-4-fluoro-phenyl)methyl)-2-oxoimidazolidine-4-carboxamide] |

| SMILES | IC50 |
| --- | --- |
| Cc1nc2ccc(C(NC(=O)[C@@H]3CNC(=O)N3)c3ccc(Cl)cc3)cc2o1 (single isomer, unassigned) [Example 83A, (S)-N-((R or S)-(4-chlorophenyl)(2-methylbenzo[d]oxazol-6-yl)methyl)-2-oxoimidazolidine-4-carboxamide] | 147 nM |
| Cc1nc2ccc(C(NC(=O)[C@@H]3CNC(=O)N3)c3ccc(Cl)cc3)cc2o1 (single isomer, unassigned) [Example 83B, (S)-N-((R or S)-(4-chlorophenyl)(2-methylbenzo[d]oxazol-6-yl)methyl)-2-oxoimidazolidine-4-carboxamide] | 201 nM |
